Reference: the supplement of paper PMC10307832

Experiments:
Test in all cases: relative viability (nuclei count vs DMSO), 5 days (fraction); higher = more cells survive
[1] = compound: C1COCCN1C2=NC(=NC3=C2OC4=C3C=CC=N4)C5=CC(=CC=C5)NC(=O)C6=CN=C(C=C6)N + CC1(C)CCC(c2ccc(Cl)cc2)=C(CN2CCN(c3ccc(C(=O)NS(=O)(=O)c4ccc(N[C@H](CCN5CCOCC5)CSc5ccccc5)c(S(=O)(=O)C(F)(F)F)c4)cc3)CC2)C1 [Navitoclax] (partner 0.5 µM)
Summary of the method: (§1)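 The day after seeding in 1536-well plates, lung cancer cell lines were treated by pin tool with a single drug, or with a fixed anchor-drug dose together with five library-drug doses (not always all listed) in √10 steps. After 5 days, a combined fix-and-stain solution (final 0.05% Triton X-100, 1% formaldehyde, 1 ug/ml Hoechst) was added. Nuclei counted on 4× images gave relative viability as treated counts over vehicle counts, reported as the median of duplicate plates.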

SGI-1776 + Luminespib = compound: CN1CCC(CNc2ccc3ncc(-c4cccc(OC(F)(F)F)c4)n3n2)CC1 [SGI-1776] + CCNC(=O)c1noc(-c2cc(C(C)C)c(O)cc2O)c1-c1ccc(CN2CCOCC2)cc1 [Luminespib] (partner 0.01 µM)
Summary of the method: as §1

SGI-1776 + Pictilisib = compound: CN1CCC(CNc2ccc3ncc(-c4cccc(OC(F)(F)F)c4)n3n2)CC1 [SGI-1776] + CS(=O)(=O)N1CCN(Cc2cc3nc(-c4cccc5[nH]ncc45)nc(N4CCOCC4)c3s2)CC1 [Pictilisib] (partner 1 µM)
Summary of the method: as §1

Row | Cell Line | relative viability ([1]; first compound 0.02 µM) | relative viability ([1]; first compound 0.06325 µM) | relative viability ([1]; first compound 0.2 µM) | relative viability ([1]; first compound 0.6325 µM) | relative viability ([1]; first compound 2 µM) | relative viability (SGI-1776 + Luminespib; first compound 0.08 µM) | relative viability (SGI-1776 + Luminespib; first compound 0.8 µM) | relative viability (SGI-1776 + Luminespib; first compound 2.53 µM) | relative viability (SGI-1776 + Luminespib; first compound 8 µM) | relative viability (SGI-1776 + Pictilisib; first compound 0.08 µM) | relative viability (SGI-1776 + Pictilisib; first compound 0.8 µM) | relative viability (SGI-1776 + Pictilisib; first compound 2.53 µM) | relative viability (SGI-1776 + Pictilisib; first compound 8 µM)
1 | NCI-H727 | 0.351 | 0.501 | 0.343 | 0.357 | 0.337 | 0.408 | 0.337 | 0.311 | 0.253 | 0.398 | 0.626 | 0.376 | 0.285
2 | NCI-H838 | 0.92 | 1.14 | 1.09 | 0.946 | 0.437 | 0.231 | 0.331 | 0.349 | 0.254 | 0.446 | 0.398 | 0.414 | 0.277
3 | NCI-H1299 | 1.04 | 1.05 | 1.01 | 1.07 | 0.976 |  |  |  |  | 0.821 | 0.832 | 0.596 | 0.505
4 | NCI-H1355 | 0.924 | 1.08 | 0.909 | 0.841 | 0.9 | 0.68 | 0.625 | 0.607 | 0.551 | 0.488 | 0.494 | 0.439 | 0.364
5 | NCI-H1395 | 0.919 | 1.07 | 1.03 | 1.25 | 1.19 | 0.768 | 0.772 | 0.573 | 0.414 | 0.591 | 0.64 | 0.542 | 0.494
6 | NCI-H1437 | 1.15 | 1.16 | 1.04 | 1.08 | 0.563 | 1.12 | 1.19 | 1.22 | 1.12 | 0.435 | 0.517 | 0.367 | 0.219
7 | NCI-H1563 |  |  |  |  |  | 0.522 | 0.497 | 0.515 | 0.538 | 0.707 | 0.588 | 0.583 | 0.467
8 | NCI-H1623 |  |  |  |  |  | 0.468 | 0.612 | 0.576 | 0.506 |  |  |  | 
9 | NCI-H1650 | 1.27 | 1.34 | 1.06 | 1.32 | 0.539 | 0.211 | 0.198 | 0.195 | 0.172 | 0.586 | 0.542 | 0.355 | 0.146
10 | NCI-H1651 | 1.33 | 1.18 | 0.984 | 1.15 | 0.614 | 0.823 | 0.977 | 0.784 | 0.642 | 0.671 | 0.559 | 0.421 | 0.432
11 | NCI-H1666 | 0.856 | 0.96 | 0.722 | 0.687 | 0.573 | 1.03 | 0.995 | 0.972 | 0.877 | 0.568 | 0.403 | 0.404 | 0.313
12 | NCI-H1703 | 0.874 | 1.03 | 0.983 | 0.646 | 0.416 |  |  |  |  | 0.242 | 0.22 | 0.251 | 0.181
13 | NCI-H1734 | 0.838 | 0.99 | 0.87 | 0.821 | 0.441 | 0.193 | 0.201 | 0.19 | 0.163 | 0.468 | 0.472 | 0.396 | 0.332
14 | NCI-H2342 |  |  |  |  |  | 0.695 | 0.767 | 0.721 | 0.64 |  |  |  | 
15 | SW 900 |  |  |  |  |  | 0.178 | 0.173 | 0.208 | 0.166 |  |  |  | 
